Measured values from the NIST ThermoML archive (doi:10.1016/j.jct.2013.10.034).
± gives the expanded uncertainty stated by the source.

Experiment: xn = mol fraction of the nth substance listed
Details: 100 kPa, Liquid; for viscosity: Falling or rolling sphere viscometry; for mass density: Vibrating tube method

Which viscosity (298.15 K, x1 = 0.0936) does the source give for `CCCC[N+]1(C)CCCCC1.N#C[N-]C#N` [1-butyl-1-methylpiperidinium dicyanamide] + O here?
The viscosity was 6.144 ± 0.98 mPa·s.

What about the viscosity (298.15 K, x1 = 0.1748) of the same compound?
Its viscosity is 10.16 ± 1.6 mPa·s.

And the viscosity (298.15 K, x1 = 0.2651)?
The viscosity was 16.96 ± 2.7 mPa·s.

What about the viscosity (298.15 K, x1 = 0.3581) of the same compound?
The viscosity was 24.65 ± 4 mPa·s.

What about the viscosity (298.15 K, x1 = 0.4952) of the same compound?
The viscosity was 36.93 ± 5.9 mPa·s.

And the viscosity (298.15 K, x1 = 0.6246)?
The viscosity was 49.82 ± 8 mPa·s.

What about the viscosity (298.15 K, x1 = 0.7878) of the same compound?
Its viscosity is 72.53 ± 12 mPa·s.

What about the viscosity (298.15 K, x1 = 0.9216) of the same compound?
Its viscosity is 103.3 ± 17 mPa·s.

And the viscosity (298.15 K, x1 = 1)?
The viscosity was 123.3 ± 20 mPa·s.

What about the mass density (298.15 K, x1 = 0.0936) of the same compound?
The mass density was 1007.95 ± 0.21 kg/m3.

What about the mass density (298.15 K, x1 = 0.1748) of the same compound?
The mass density was 1011.38 ± 0.21 kg/m3.

And the mass density (298.15 K, x1 = 0.2651)?
Its mass density is 1013.31 ± 0.22 kg/m3.

What about the mass density (298.15 K, x1 = 0.3581) of the same compound?
The mass density was 1014.27 ± 0.23 kg/m3.

What about the mass density (298.15 K, x1 = 0.4952) of the same compound?
The mass density was 1014.9 ± 0.26 kg/m3.

What about the mass density (298.15 K, x1 = 0.6246) of the same compound?
The mass density was 1015.36 ± 0.3 kg/m3.

What about the mass density (298.15 K, x1 = 0.7878) of the same compound?
The mass density was 1015.65 ± 0.37 kg/m3.

And the mass density (298.15 K, x1 = 0.9216)?
Its mass density is 1015.91 ± 0.45 kg/m3.

What about the mass density (298.15 K, x1 = 1) of the same compound?
The mass density was 1016.13 ± 0.5 kg/m3.

What about the viscosity (303.15 K, x1 = 0.0936) of the same compound?
The viscosity was 5.247 ± 0.84 mPa·s.

And the viscosity (303.15 K, x1 = 0.1748)?
The viscosity was 8.56 ± 1.4 mPa·s.

And the viscosity (303.15 K, x1 = 0.2651)?
Its viscosity is 14.05 ± 2.2 mPa·s.

What about the viscosity (303.15 K, x1 = 0.3581) of the same compound?
The viscosity was 20.16 ± 3.2 mPa·s.

And the viscosity (303.15 K, x1 = 0.4952)?
Its viscosity is 29.68 ± 4.8 mPa·s.

What about the viscosity (303.15 K, x1 = 0.6246) of the same compound?
Its viscosity is 40.79 ± 6.5 mPa·s.

And the viscosity (303.15 K, x1 = 0.7878)?
Its viscosity is 57.58 ± 9.2 mPa·s.

What about the viscosity (303.15 K, x1 = 0.9216) of the same compound?
The viscosity was 79.12 ± 13 mPa·s.

What about the viscosity (303.15 K, x1 = 1) of the same compound?
Its viscosity is 92.97 ± 15 mPa·s.

What about the mass density (303.15 K, x1 = 0.0936) of the same compound?
The mass density was 1004.63 ± 0.21 kg/m3.

And the mass density (303.15 K, x1 = 0.1748)?
The mass density was 1008.21 ± 0.21 kg/m3.

And the mass density (303.15 K, x1 = 0.2651)?
The mass density was 1010.2 ± 0.22 kg/m3.

What about the mass density (303.15 K, x1 = 0.3581) of the same compound?
Its mass density is 1011.26 ± 0.23 kg/m3.

What about the mass density (303.15 K, x1 = 0.4952) of the same compound?
Its mass density is 1012.13 ± 0.26 kg/m3.

What about the mass density (303.15 K, x1 = 0.6246) of the same compound?
Its mass density is 1012.52 ± 0.3 kg/m3.

What about the mass density (303.15 K, x1 = 0.7878) of the same compound?
Its mass density is 1012.82 ± 0.37 kg/m3.

And the mass density (303.15 K, x1 = 0.9216)?
The mass density was 1012.88 ± 0.45 kg/m3.

And the mass density (303.15 K, x1 = 1)?
The mass density was 1012.98 ± 0.5 kg/m3.

And the viscosity (308.15 K, x1 = 0.0936)?
The viscosity was 4.529 ± 0.73 mPa·s.

What about the viscosity (308.15 K, x1 = 0.1748) of the same compound?
The viscosity was 7.3 ± 1.2 mPa·s.

And the viscosity (308.15 K, x1 = 0.2651)?
The viscosity was 11.81 ± 1.9 mPa·s.

And the viscosity (308.15 K, x1 = 0.3581)?
The viscosity was 16.78 ± 2.7 mPa·s.

And the viscosity (308.15 K, x1 = 0.4952)?
Its viscosity is 24.59 ± 3.9 mPa·s.

What about the viscosity (308.15 K, x1 = 0.6246) of the same compound?
Its viscosity is 32.52 ± 5.2 mPa·s.

What about the viscosity (308.15 K, x1 = 0.7878) of the same compound?
Its viscosity is 46 ± 7.4 mPa·s.

What about the viscosity (308.15 K, x1 = 0.9216) of the same compound?
The viscosity was 64.15 ± 10 mPa·s.

What about the viscosity (308.15 K, x1 = 1) of the same compound?
Its viscosity is 75.58 ± 12 mPa·s.

What about the mass density (308.15 K, x1 = 0.0936) of the same compound?
Its mass density is 1001.56 ± 0.21 kg/m3.

And the mass density (308.15 K, x1 = 0.1748)?
The mass density was 1005.06 ± 0.21 kg/m3.

And the mass density (308.15 K, x1 = 0.2651)?
The mass density was 1007.08 ± 0.22 kg/m3.

And the mass density (308.15 K, x1 = 0.3581)?
Its mass density is 1008.27 ± 0.23 kg/m3.

What about the mass density (308.15 K, x1 = 0.4952) of the same compound?
The mass density was 1009.31 ± 0.26 kg/m3.

And the mass density (308.15 K, x1 = 0.6246)?
The mass density was 1009.93 ± 0.3 kg/m3.

And the mass density (308.15 K, x1 = 0.7878)?
The mass density was 1010.41 ± 0.37 kg/m3.

What about the mass density (308.15 K, x1 = 0.9216) of the same compound?
The mass density was 1010.57 ± 0.44 kg/m3.

And the mass density (308.15 K, x1 = 1)?
Its mass density is 1010.65 ± 0.49 kg/m3.

What about the viscosity (313.15 K, x1 = 0.0936) of the same compound?
The viscosity was 3.946 ± 0.63 mPa·s.

And the viscosity (313.15 K, x1 = 0.1748)?
The viscosity was 6.291 ± 1 mPa·s.

What about the viscosity (313.15 K, x1 = 0.2651) of the same compound?
Its viscosity is 10.05 ± 1.6 mPa·s.

And the viscosity (313.15 K, x1 = 0.3581)?
Its viscosity is 14.16 ± 2.3 mPa·s.

What about the viscosity (313.15 K, x1 = 0.4952) of the same compound?
The viscosity was 20.59 ± 3.3 mPa·s.

And the viscosity (313.15 K, x1 = 0.6246)?
The viscosity was 27.94 ± 4.5 mPa·s.

And the viscosity (313.15 K, x1 = 0.7878)?
The viscosity was 38.87 ± 6.2 mPa·s.

And the viscosity (313.15 K, x1 = 0.9216)?
The viscosity was 51.99 ± 8.3 mPa·s.

What about the viscosity (313.15 K, x1 = 1) of the same compound?
The viscosity was 60.93 ± 9.8 mPa·s.

And the mass density (313.15 K, x1 = 0.0936)?
Its mass density is 998.43 ± 0.21 kg/m3.

What about the mass density (313.15 K, x1 = 0.1748) of the same compound?
Its mass density is 1001.86 ± 0.21 kg/m3.

What about the mass density (313.15 K, x1 = 0.2651) of the same compound?
Its mass density is 1004.02 ± 0.22 kg/m3.

What about the mass density (313.15 K, x1 = 0.3581) of the same compound?
The mass density was 1005.25 ± 0.23 kg/m3.

And the mass density (313.15 K, x1 = 0.4952)?
The mass density was 1006.34 ± 0.26 kg/m3.

And the mass density (313.15 K, x1 = 0.6246)?
Its mass density is 1007.01 ± 0.3 kg/m3.

What about the mass density (313.15 K, x1 = 0.7878) of the same compound?
The mass density was 1007.53 ± 0.37 kg/m3.

What about the mass density (313.15 K, x1 = 0.9216) of the same compound?
The mass density was 1007.8 ± 0.44 kg/m3.

And the mass density (313.15 K, x1 = 1)?
Its mass density is 1007.92 ± 0.49 kg/m3.

And the viscosity (318.15 K, x1 = 0.0936)?
Its viscosity is 3.467 ± 0.56 mPa·s.

What about the viscosity (318.15 K, x1 = 0.1748) of the same compound?
The viscosity was 5.47 ± 0.88 mPa·s.

What about the viscosity (318.15 K, x1 = 0.2651) of the same compound?
The viscosity was 8.651 ± 1.4 mPa·s.

What about the viscosity (318.15 K, x1 = 0.3581) of the same compound?
Its viscosity is 12.11 ± 1.9 mPa·s.

And the viscosity (318.15 K, x1 = 0.4952)?
The viscosity was 17.45 ± 2.8 mPa·s.

And the viscosity (318.15 K, x1 = 0.6246)?
The viscosity was 23.32 ± 3.7 mPa·s.

And the viscosity (318.15 K, x1 = 0.7878)?
The viscosity was 32.26 ± 5.2 mPa·s.

What about the viscosity (318.15 K, x1 = 0.9216) of the same compound?
The viscosity was 42.71 ± 6.9 mPa·s.

What about the viscosity (318.15 K, x1 = 1) of the same compound?
Its viscosity is 49.79 ± 8 mPa·s.

What about the mass density (318.15 K, x1 = 0.0936) of the same compound?
The mass density was 995.26 ± 0.21 kg/m3.

And the mass density (318.15 K, x1 = 0.1748)?
Its mass density is 998.67 ± 0.21 kg/m3.

What about the mass density (318.15 K, x1 = 0.2651) of the same compound?
Its mass density is 1000.91 ± 0.22 kg/m3.

And the mass density (318.15 K, x1 = 0.3581)?
The mass density was 1002.25 ± 0.23 kg/m3.

And the mass density (318.15 K, x1 = 0.4952)?
The mass density was 1003.45 ± 0.26 kg/m3.

What about the mass density (318.15 K, x1 = 0.6246) of the same compound?
The mass density was 1004.15 ± 0.29 kg/m3.

And the mass density (318.15 K, x1 = 0.7878)?
The mass density was 1004.74 ± 0.36 kg/m3.

What about the mass density (318.15 K, x1 = 0.9216) of the same compound?
The mass density was 1005.06 ± 0.44 kg/m3.
